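All cell lines were grown in 96-well plates and treated with compound for 48 hours. GI50 = concentration required for 50% inhibition of growth.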 Active and inactive are the calls of the source. Rule as the data show it: active = GI50 up to about 1.1 µM and inactive = higher.
Experiments:
Test in all cases: DTP human tumour cell line panel, 48 h
[1] = tested on: K562
[2] = tested on: SK-OV-3
[3] = tested on: CCRF-CEM
[4] = tested on: OVCAR-3
[5] = tested on: HOP-18
[6] = tested on: CAKI-1
[7] = tested on: RXF 393
[8] = tested on: LOX IMVI
[9] = tested on: HCT-116
[10] = tested on: DLD-1
[11] = tested on: UO-31
[12] = tested on: HCC 2998
[13] = tested on: RXF 631
[14] = tested on: A549
[15] = tested on: NCI-H522
[16] = tested on: HCT-15
[17] = tested on: UACC-62
[18] = tested on: SNB-78
[19] = tested on: SK-MEL-2
[20] = tested on: OVCAR-4
[21] = tested on: TK-10
[22] = tested on: RPMI-8226
[23] = tested on: SNB-75
[24] = tested on: HOP-62
[25] = tested on: DMS-273
[26] = tested on: Malme-3M
[27] = tested on: SNB-19
[28] = tested on: COLO 205
[29] = tested on: DMS-114
[30] = tested on: M14
[31] = tested on: UACC-257
[32] = tested on: SF-268
[33] = tested on: HL-60
[34] = tested on: SK-MEL-5
[35] = tested on: MOLT-4
[36] = tested on: 786-0
[37] = tested on: HT-29
[38] = tested on: OVCAR-5
[39] = tested on: M19-MEL
[40] = tested on: SF-295
[41] = tested on: NCI-H23
[42] = tested on: SN12C
[43] = tested on: NCI-H460
[44] = tested on: KM-20L2
[45] = tested on: EKVX
[46] = tested on: SF-539
[47] = tested on: KM12
[48] = tested on: OVCAR-8
[49] = tested on: SW-620
[50] = tested on: ACHN
[51] = tested on: A498
[52] = tested on: U-251
[53] = tested on: HOP-92
[54] = tested on: XF498
[55] = tested on: IGROV-1

With `c1ccc(C2C3=C(Nc4ncnn42)c2ccccc2C3)cc1` (stereo not given) the GI50 [1] was 7.93 µM (inactive), the GI50 [2] was 13.2 µM (inactive) and the GI50 [3] was 15.5 µM (inactive). For the same compound, the GI50 [4] was 8.93 µM (inactive), the GI50 [5] was 56.1 µM (inactive) and the GI50 [6] was 42.3 µM (inactive). For the same compound, the GI50 [7] was 21.1 µM (inactive), the GI50 [8] was 15.6 µM (inactive) and the GI50 [9] was 12 µM (inactive). For the same compound, the GI50 [10] was 14.1 µM (inactive), the GI50 [11] was 48.2 µM (inactive) and the GI50 [12] was 8.15 µM (inactive). For the same compound, the GI50 [13] was > 100 µM (inactive), the GI50 [14] was 34.5 µM (inactive) and the GI50 [15] was 6.14 µM (inactive). The GI50 [16] was 20.1 µM, the GI50 [17] was 4.99 µM (inactive) and the GI50 [18] was > 100 µM (inactive). For the same compound, the GI50 [19] was 11.6 µM (inactive), the GI50 [20] was 95.9 µM (inactive) and the GI50 [21] was 35 µM (inactive). The GI50 [22] was 29.5 µM (inactive), the GI50 [23] was 83.9 µM (inactive) and the GI50 [24] was 31.7 µM (inactive). For the same compound, the GI50 [25] was 12.1 µM (inactive), the GI50 [26] was 15.6 µM (inactive) and the GI50 [27] was 14.9 µM (inactive). The GI50 [28] was 11 µM (inactive), the GI50 [29] was 7.1 µM (inactive) and the GI50 [30] was 5.38 µM (inactive). For the same compound, the GI50 [31] was > 100 µM (inactive), the GI50 [32] was 20 µM (inactive) and the GI50 [33] was 5.07 µM (inactive). For the same compound, the GI50 [34] was 10.9 µM (inactive), the GI50 [35] was 17.4 µM (inactive) and the GI50 [36] was 25.4 µM (inactive). The GI50 [37] was 4.3 µM (inactive), the GI50 [38] was 46.8 µM (inactive) and the GI50 [39] was 9.75 µM (inactive). The GI50 [40] was 8.02 µM (inactive), the GI50 [41] was 15 µM (inactive) and the GI50 [42] was 35.3 µM (inactive). For the same compound, the GI50 [43] was 12.1 µM (inactive), the GI50 [44] was 7.89 µM (inactive) and the GI50 [45] was 87.5 µM (inactive). The GI50 [46] was 11.4 µM (inactive), the GI50 [47] was 4.68 µM (inactive) and the GI50 [48] was 30.8 µM (inactive). For the same compound, the GI50 [49] was 4.93 µM (inactive), the GI50 [50] was 82.6 µM (inactive) and the GI50 [51] was 51.2 µM (inactive). The GI50 [52] was 2.93 µM (inactive), the GI50 [53] was 21.8 µM (inactive) and the GI50 [54] was 15.4 µM (inactive). The GI50 [55] was 86.1 µM (inactive).

Source: ChEMBL document CHEMBL1201862, “PubChem BioAssay data set” (2004)
